Our source for the AC50 values is ChEMBL document CHEMBL5291721, “A preclinical secondary pharmacology resource illuminates target-adverse drug reaction associations of marketed drugs” (Nat Commun, 2023).

Among the targets are Adenosine receptor A2a (Homo sapiens, UniProt P29274); Vasopressin V2 receptor (Homo sapiens, UniProt P30518); Motilin receptor (Homo sapiens, UniProt O43193).
In assay [1] the target is T1, Alpha-1A adrenergic receptor (Homo sapiens, UniProt P35348).
T1 sequence (P35348 whole entry): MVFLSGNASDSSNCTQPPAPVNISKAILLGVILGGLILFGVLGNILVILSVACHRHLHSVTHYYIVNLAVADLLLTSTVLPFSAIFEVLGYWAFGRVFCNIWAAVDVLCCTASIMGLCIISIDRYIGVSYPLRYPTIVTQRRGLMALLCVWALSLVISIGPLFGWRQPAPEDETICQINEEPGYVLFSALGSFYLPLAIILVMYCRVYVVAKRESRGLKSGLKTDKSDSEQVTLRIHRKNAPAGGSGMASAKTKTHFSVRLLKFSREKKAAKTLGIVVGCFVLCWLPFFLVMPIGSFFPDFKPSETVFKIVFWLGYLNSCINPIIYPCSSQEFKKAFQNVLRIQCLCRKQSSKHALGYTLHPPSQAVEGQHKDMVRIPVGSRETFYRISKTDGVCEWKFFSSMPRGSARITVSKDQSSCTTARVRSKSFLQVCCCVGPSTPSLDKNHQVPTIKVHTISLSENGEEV
It is filed as functional, cell-based.

Assay [2] deals with T2, Alpha-2A adrenergic receptor (Homo sapiens, UniProt P08913).
T2 sequence (P08913 whole entry): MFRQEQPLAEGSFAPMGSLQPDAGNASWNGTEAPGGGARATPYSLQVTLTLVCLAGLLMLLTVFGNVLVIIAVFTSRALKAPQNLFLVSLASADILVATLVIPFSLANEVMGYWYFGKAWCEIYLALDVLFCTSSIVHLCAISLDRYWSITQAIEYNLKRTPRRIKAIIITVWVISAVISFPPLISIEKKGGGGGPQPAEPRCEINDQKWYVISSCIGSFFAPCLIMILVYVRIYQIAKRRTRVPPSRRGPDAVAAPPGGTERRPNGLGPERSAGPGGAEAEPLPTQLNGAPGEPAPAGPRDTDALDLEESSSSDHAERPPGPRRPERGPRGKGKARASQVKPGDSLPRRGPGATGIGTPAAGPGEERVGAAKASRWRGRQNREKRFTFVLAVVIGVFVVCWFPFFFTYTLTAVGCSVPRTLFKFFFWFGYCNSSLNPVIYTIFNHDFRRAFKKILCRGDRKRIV
In kind it is functional, cell-based.

The target in assay [3] is Beta-1 adrenergic receptor (Homo sapiens, UniProt P08588). In kind it is functional.
Assay [4] has as its target T3, Cannabinoid receptor 1 (Homo sapiens, UniProt P21554). It is filed as functional, cell-based.
Assay [5] deals with T3, Cannabinoid receptor 1. It is filed as functional, cell-based. The source holds these as a separate data set.
The target in assay [6] is Gamma-aminobutyric acid receptor subunit alpha-1 (Rattus norvegicus, UniProt P62813).
Assay [7] concerns the target Glutamate receptor ionotropic, NMDA 1 (Rattus norvegicus, UniProt P35439).
Assay [8] concerns the target T4, 5-hydroxytryptamine receptor 1A (Homo sapiens, UniProt P08908).
T4 sequence (P08908 whole entry): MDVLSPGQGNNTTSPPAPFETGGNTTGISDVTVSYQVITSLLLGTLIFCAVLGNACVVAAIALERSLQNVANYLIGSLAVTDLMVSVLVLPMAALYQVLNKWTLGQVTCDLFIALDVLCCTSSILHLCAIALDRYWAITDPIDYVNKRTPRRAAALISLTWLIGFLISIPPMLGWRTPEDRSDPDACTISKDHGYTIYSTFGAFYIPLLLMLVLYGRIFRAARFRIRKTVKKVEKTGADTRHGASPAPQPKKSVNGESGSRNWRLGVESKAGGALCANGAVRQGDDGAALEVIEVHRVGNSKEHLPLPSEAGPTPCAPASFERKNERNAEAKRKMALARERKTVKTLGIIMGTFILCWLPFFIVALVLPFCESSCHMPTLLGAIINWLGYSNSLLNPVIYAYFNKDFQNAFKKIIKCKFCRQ
In kind it is functional, cell-based.

For assay [9], the target named is Voltage-gated inwardly rectifying potassium channel KCNH2 (Homo sapiens, UniProt Q12809). In kind it is functional. The following applies: read-out: AC50.
Assay [10] deals with T5, Neuropeptide Y receptor type 1 (Homo sapiens, UniProt P25929).
T5 sequence (P25929 whole entry): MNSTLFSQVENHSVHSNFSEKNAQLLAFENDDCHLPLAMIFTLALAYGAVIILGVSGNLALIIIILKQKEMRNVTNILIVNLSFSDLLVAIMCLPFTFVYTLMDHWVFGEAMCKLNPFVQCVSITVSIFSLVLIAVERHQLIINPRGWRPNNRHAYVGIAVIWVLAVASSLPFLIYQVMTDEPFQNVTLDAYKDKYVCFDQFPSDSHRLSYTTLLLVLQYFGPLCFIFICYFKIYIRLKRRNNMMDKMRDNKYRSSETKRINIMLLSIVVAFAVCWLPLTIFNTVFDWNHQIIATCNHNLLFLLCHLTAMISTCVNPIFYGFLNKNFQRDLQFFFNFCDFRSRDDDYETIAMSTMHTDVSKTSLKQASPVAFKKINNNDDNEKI

Assay [11] concerns the target Kappa-type opioid receptor (Homo sapiens, UniProt P41145).
Assay [12] has as its target T6, Equilibrative nucleoside transporter 1 (Homo sapiens, UniProt Q99808).
T6 sequence (Q99808 whole entry): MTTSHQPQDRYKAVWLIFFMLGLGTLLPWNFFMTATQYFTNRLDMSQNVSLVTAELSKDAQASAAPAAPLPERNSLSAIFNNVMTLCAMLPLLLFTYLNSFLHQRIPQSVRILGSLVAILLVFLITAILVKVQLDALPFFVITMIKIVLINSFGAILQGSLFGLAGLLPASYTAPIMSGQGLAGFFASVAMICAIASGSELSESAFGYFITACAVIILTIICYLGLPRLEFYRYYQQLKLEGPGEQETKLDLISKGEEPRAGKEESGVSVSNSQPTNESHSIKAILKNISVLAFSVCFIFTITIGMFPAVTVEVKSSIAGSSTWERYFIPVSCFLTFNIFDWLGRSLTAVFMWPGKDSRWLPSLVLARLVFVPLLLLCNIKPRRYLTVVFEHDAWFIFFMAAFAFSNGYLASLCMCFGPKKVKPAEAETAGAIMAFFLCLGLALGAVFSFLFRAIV

One may read the AC50 as the concentration giving half of the maximal activity seen.
Also: assay procedure not described here.

Sequence of Vasopressin V2 receptor (P30518 whole entry): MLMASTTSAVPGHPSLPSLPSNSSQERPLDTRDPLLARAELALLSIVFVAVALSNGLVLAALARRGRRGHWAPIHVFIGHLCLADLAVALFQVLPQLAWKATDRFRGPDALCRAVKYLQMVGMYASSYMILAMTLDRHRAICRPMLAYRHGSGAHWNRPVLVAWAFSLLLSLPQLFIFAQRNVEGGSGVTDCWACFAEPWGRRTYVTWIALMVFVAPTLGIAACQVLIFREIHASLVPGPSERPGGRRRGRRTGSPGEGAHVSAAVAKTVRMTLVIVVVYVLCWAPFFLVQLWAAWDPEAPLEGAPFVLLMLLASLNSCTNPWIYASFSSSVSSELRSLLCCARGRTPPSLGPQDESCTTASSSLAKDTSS
Sequence of Beta-1 adrenergic receptor (P08588 whole entry): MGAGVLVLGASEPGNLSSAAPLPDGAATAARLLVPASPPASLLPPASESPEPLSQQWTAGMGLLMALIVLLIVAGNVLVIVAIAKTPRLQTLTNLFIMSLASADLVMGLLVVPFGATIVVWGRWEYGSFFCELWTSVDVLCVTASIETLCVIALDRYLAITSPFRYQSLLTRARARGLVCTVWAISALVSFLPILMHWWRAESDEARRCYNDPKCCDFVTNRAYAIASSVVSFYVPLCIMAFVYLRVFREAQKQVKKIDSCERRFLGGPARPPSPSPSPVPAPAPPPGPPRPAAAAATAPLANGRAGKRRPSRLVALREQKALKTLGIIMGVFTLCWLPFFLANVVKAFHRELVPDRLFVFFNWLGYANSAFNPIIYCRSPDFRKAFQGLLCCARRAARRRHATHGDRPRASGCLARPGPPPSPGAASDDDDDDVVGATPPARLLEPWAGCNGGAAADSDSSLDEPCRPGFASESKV
Sequence of Motilin receptor (O43193 whole entry): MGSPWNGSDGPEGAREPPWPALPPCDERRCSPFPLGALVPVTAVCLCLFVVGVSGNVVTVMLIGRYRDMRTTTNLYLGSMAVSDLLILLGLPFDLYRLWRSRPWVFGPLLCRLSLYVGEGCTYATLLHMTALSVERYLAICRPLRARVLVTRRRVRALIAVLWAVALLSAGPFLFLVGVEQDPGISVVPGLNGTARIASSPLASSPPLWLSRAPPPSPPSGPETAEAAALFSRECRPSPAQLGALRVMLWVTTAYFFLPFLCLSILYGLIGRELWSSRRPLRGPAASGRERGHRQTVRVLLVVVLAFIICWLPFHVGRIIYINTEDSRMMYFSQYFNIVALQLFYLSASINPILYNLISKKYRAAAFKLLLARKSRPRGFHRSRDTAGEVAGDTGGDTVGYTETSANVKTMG
T3 sequence (P21554 whole entry): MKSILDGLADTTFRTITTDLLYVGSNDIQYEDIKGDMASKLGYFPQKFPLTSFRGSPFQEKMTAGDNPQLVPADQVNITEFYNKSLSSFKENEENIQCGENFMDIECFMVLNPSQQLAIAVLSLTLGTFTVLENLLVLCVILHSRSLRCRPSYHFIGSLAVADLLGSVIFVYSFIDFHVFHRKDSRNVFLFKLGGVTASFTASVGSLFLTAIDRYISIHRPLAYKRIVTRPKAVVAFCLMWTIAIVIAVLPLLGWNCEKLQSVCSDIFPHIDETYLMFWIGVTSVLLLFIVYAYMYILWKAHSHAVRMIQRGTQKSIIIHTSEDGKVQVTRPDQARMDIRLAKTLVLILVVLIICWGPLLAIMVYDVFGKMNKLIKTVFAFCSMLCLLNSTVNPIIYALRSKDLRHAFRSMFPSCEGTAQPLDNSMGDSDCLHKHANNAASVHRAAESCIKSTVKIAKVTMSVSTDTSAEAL
Sequence of Gamma-aminobutyric acid receptor subunit alpha-1 (P62813 whole entry): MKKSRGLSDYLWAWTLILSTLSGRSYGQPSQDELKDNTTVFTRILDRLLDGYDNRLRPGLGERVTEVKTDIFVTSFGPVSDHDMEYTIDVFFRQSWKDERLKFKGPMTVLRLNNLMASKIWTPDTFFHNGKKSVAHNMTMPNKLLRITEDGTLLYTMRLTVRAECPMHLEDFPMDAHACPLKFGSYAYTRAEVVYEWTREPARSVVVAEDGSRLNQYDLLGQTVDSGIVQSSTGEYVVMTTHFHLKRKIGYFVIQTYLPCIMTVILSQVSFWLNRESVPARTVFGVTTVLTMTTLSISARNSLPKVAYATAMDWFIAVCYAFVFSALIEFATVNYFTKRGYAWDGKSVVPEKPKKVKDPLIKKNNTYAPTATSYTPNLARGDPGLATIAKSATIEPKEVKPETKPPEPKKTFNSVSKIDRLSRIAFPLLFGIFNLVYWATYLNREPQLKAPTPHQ
Sequence of Voltage-gated inwardly rectifying potassium channel KCNH2 (Q12809 whole entry): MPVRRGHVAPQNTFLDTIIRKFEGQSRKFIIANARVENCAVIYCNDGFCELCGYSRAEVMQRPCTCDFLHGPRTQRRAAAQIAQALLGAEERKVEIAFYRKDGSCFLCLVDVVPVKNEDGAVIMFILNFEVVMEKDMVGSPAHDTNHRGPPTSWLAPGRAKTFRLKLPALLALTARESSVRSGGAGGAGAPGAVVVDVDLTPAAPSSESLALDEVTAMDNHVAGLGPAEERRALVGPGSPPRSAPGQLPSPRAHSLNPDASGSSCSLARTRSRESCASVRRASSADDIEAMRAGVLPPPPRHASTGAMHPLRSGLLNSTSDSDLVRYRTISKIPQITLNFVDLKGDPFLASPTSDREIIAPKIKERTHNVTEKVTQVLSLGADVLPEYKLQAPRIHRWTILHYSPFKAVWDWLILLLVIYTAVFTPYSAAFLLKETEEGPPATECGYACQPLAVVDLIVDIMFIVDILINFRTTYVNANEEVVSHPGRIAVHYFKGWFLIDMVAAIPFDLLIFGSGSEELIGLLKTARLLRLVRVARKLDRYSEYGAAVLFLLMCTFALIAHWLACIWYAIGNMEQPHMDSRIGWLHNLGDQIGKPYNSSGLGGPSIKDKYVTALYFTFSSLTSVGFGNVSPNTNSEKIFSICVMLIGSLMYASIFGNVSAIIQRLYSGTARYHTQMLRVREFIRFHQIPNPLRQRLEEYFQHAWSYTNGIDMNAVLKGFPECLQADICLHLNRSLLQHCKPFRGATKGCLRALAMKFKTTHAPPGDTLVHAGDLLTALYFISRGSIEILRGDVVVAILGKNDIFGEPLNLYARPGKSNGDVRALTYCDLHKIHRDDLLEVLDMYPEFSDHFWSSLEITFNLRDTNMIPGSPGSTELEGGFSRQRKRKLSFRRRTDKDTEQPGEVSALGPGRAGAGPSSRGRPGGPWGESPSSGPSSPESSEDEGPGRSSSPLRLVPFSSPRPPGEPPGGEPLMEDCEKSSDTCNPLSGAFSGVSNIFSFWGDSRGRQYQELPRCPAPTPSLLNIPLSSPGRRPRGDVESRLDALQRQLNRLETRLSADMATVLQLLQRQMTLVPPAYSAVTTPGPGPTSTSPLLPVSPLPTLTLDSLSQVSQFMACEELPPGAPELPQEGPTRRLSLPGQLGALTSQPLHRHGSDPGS
Sequence of Adenosine receptor A2a (P29274 whole entry): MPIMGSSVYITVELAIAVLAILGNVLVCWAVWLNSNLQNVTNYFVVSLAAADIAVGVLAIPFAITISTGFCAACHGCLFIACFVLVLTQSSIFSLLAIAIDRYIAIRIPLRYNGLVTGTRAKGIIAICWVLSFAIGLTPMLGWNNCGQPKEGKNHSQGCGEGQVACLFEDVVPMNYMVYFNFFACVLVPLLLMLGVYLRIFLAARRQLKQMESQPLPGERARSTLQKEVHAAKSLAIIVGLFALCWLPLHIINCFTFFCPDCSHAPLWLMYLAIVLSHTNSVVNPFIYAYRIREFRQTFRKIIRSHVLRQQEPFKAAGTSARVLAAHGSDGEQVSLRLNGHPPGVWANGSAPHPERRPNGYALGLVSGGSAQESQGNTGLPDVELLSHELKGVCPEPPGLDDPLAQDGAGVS
Sequence of Kappa-type opioid receptor (P41145 whole entry): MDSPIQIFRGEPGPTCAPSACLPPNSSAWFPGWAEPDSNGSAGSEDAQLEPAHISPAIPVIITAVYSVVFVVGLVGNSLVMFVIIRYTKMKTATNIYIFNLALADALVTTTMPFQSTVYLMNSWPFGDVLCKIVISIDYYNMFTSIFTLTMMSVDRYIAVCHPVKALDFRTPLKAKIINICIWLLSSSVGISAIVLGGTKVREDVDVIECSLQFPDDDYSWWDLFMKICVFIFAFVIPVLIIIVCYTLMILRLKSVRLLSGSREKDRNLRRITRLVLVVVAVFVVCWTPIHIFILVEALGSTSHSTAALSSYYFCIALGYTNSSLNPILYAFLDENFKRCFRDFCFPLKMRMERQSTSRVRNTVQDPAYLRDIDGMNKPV

Turning to `CC(=O)Oc1cccc2c1C(=O)c1c(OC(C)=O)cc(C(=O)O)cc1C2=O` [DIACEREIN], the AC50 on Adenosine receptor A2a is 24 µM; in assay [1], 21 µM; in assay [2], 12 µM; in assay [3], > 30 µM; at Vasopressin V2 receptor, > 30 µM; on Cannabinoid receptor 1 [4], > 30 µM. Besides, the AC50 on Cannabinoid receptor 1 [5] was > 30 µM; in assay [6] it was > 30 µM; in assay [7], > 30 µM; in assay [8] it was 18 µM; in assay [9] it was > 30 µM; on Motilin receptor, > 30 µM. The values for the AC50 in assay [10], in assay [11] and in [12] were > 30 µM, > 30 µM and 4.8 µM, respectively.

For `CC(=O)OCC(=O)[C@@]1(O)CC[C@H]2[C@@H]3CCC4=CC(=O)CC[C@]4(C)[C@@]3(F)[C@@H](O)C[C@@]21C` [FLUDROCORTISONE ACETATE], the AC50 (at Adenosine receptor A2a; in assay [1]; in [2]; in [3]; at Vasopressin V2 receptor; at Cannabinoid receptor 1 [4]) was > 30 µM in each case. In addition, the AC50 (on Cannabinoid receptor 1 [5]; in assay [6]; in assay [7]; in assay [8]; in assay [9]; on Motilin receptor) was > 30 µM each time. Also, the AC50 in assay [10], in [11] and in assay [12] was > 30 µM in each case.

For `Cc1ccc(S(=O)(=O)NC(=O)N[C@H]2[C@H]3CC[C@@](C)([C@H]2O)C3(C)C)cc1` [GLIBORNURIDE], the AC50 (at Adenosine receptor A2a; in [1]; in assay [2]; in [3]; at Vasopressin V2 receptor; at Cannabinoid receptor 1 [4]) was > 30 µM in each case. Besides, the AC50 (at Cannabinoid receptor 1 [5]; in [6]; in assay [7]; in assay [8]; in assay [9]; on Motilin receptor) was > 30 µM each time. In addition, the AC50 in [10], in [11] and in assay [12] was > 30 µM throughout.

With `CCC(=O)O[C@H](CC(=O)O)C[N+](C)(C)C` [LEVOCARNITINE PROPIONATE], the AC50 (on Adenosine receptor A2a; in assay [1]; in assay [2]; in assay [3]; on Vasopressin V2 receptor; at Cannabinoid receptor 1 [4]) was > 30 µM in each case. The AC50 (on Cannabinoid receptor 1 [5]; in assay [6]; in assay [7]; in [8]; in assay [9]; on Motilin receptor) was > 30 µM throughout. Moreover, the AC50 in assay [10], in assay [11] and in assay [12] was > 30 µM throughout.

As for `COC(=O)c1ccc2c(c1)NC(=O)/C2=C(\Nc1ccc(N(C)C(=O)CN2CCN(C)CC2)cc1)c1ccccc1` [NINTEDANIB], the AC50 on Adenosine receptor A2a is 21 µM; in [1] it was > 30 µM; in assay [2], > 30 µM; in assay [3], > 30 µM; at Vasopressin V2 receptor, > 30 µM; at Cannabinoid receptor 1 [4], > 30 µM. Further, the AC50 was > 30 µM at Cannabinoid receptor 1 [5]; > 30 µM in assay [6]; > 30 µM in assay [7]; > 30 µM in assay [8]; 9.1 µM in [9]; > 30 µM on Motilin receptor. The AC50 in [10], in [11] and in assay [12] was > 30 µM each time.

For `CCN(CC)Cc1nccn1-c1ccc([N+](=O)[O-])cc1C(=O)c1ccccc1Cl` [NIZOFENONE], the AC50 (at Adenosine receptor A2a; in assay [1]; in [2]; in assay [3]; at Vasopressin V2 receptor; on Cannabinoid receptor 1 [4]) was > 30 µM in each case. Moreover, the AC50 on Cannabinoid receptor 1 [5] was > 30 µM; in [6], > 30 µM; in [7], > 30 µM; in assay [8] it was > 30 µM; in [9], 1.38 µM; on Motilin receptor, > 30 µM. Moreover, the AC50 is > 30 µM in assay [10], 6.3 µM in assay [11] and > 30 µM in [12].

For the compound `CS(=O)(=O)NC(=O)CCC/C=C\C[C@H]1C(=O)C[C@@H](O)[C@@H]1/C=C/[C@@H](O)COc1ccccc1` [SULPROSTONE], the AC50 (at Adenosine receptor A2a; in assay [1]; in assay [2]; in assay [3]; at Vasopressin V2 receptor; at Cannabinoid receptor 1 [4]) was > 30 µM in each case. Moreover, the AC50 (on Cannabinoid receptor 1 [5]; in assay [6]; in assay [7]; in assay [8]; in assay [9]; at Motilin receptor) was > 30 µM throughout. Moreover, the AC50 in assay [10], in [11] and in assay [12] was > 30 µM throughout.

As to `CCCCOC(=O)C(=O)Nc1cccc(-c2nnn[nH]2)c1` [TAZANOLAST], the AC50 (at Adenosine receptor A2a; in assay [1]; in assay [2]; in assay [3]; on Vasopressin V2 receptor; at Cannabinoid receptor 1 [4]) was > 30 µM each time. The AC50 (at Cannabinoid receptor 1 [5]; in [6]; in [7]; in [8]; in assay [9]; on Motilin receptor) was > 30 µM throughout. Besides, the AC50 in assay [10], in [11] and in [12] was > 30 µM in each case.
